# According to article PMC5766975, “Production of eicosapentaenoic acid by application of a delta-6 desaturase with the highest ALA catalytic activity in algae” (Microbial Cell Factories, 2018):
# Like-named read-outs stand apart in the source and are kept apart here.
# Legend:
# [1] = molecular target: T1, TpFADS6 (Thalassiosira pseudonana, UniProt Q4G2T1); parameters: gene desI; details: single substrate fed to Saccharomyces cerevisiae INVSc1 expressing the desaturase; delta-6 desaturation; free acid fed
# [2] = molecular target: T1, TpFADS6; test: fatty acid composition of substrate-fed yeast transformants by GC (conversion to GLA); type: cell-based; parameters: gene desI; full-length, synthetic codon-optimised gene, 1455-bp fragment; expressed from pYES2/NT C (vector-encoded tag) in Saccharomyces cerevisiae INVSc1; details: single substrate fed to Saccharomyces cerevisiae INVSc1 expressing the desaturase; delta-6 desaturation; free acid fed
# T1 sequence (Q4G2T1 entry or part of it): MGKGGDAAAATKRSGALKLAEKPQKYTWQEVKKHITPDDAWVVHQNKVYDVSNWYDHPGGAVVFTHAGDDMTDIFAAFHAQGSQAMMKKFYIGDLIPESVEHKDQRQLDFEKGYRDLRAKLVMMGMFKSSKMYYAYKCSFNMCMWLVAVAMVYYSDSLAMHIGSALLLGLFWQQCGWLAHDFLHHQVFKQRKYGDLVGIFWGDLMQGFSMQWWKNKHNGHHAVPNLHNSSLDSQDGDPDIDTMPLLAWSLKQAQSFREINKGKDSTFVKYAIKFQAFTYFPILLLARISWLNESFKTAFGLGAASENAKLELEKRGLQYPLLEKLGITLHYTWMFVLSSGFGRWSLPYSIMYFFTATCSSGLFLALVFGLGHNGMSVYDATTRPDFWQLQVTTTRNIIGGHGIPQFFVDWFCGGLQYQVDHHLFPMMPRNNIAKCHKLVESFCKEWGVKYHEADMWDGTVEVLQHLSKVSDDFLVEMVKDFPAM
SMILES,fatty acid composition of substrate-fed yeast transformants by GC (conversion to) [1],fatty acid composition of substrate-fed yeast transformants by GC (conversion to) [2]
"CC/C=C\C/C=C\C/C=C\CCCCCCCC(=O)O [ALA, α-linolenic acid]",both substrates were catalyzed by TpFADS6,–
"CCCCC/C=C\C/C=C\CCCCCCCC(=O)O [LA, linoleic acid]",–,both substrates were catalyzed by TpFADS6
